Data from patent US10231954B2, “Neurodegenerative therapies” (LYTIX BIOPHARMA AS, priority 2014, dated 2019).

What was measured:
Format in all cases: biochemical
[1] = target: T1, PKD1 (Homo sapiens, UniProt Q15139); assay: Kinase profiling PKD1
T1 sequence (Q15139 1-912): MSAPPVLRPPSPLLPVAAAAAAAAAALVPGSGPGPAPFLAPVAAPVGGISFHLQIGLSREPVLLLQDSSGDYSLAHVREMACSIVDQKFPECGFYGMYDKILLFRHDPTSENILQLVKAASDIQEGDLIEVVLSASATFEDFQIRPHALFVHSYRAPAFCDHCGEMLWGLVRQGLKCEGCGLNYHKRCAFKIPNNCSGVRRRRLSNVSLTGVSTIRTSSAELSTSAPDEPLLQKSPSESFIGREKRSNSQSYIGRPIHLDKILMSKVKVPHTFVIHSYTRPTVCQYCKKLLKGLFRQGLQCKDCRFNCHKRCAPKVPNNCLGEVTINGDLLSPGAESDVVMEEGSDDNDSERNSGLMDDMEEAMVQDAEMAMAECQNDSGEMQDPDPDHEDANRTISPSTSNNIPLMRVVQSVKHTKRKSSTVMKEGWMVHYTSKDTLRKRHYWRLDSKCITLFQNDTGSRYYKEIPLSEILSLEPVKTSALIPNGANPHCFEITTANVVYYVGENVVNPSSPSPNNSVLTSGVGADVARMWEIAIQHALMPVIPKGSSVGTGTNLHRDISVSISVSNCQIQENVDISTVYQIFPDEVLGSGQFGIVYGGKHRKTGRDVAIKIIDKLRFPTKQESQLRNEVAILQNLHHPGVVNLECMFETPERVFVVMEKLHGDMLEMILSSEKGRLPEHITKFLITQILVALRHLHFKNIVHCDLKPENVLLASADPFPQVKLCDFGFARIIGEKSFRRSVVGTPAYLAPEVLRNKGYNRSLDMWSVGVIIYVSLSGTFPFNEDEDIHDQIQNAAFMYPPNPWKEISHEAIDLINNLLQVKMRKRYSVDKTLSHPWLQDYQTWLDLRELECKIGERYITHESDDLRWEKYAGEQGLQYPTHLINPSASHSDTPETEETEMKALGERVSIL
Description: (§1) Any value less that 25 is considered to be highly significant inhibition.

[2] = target: PKCa (Homo sapiens, UniProt P17252); assay: Kinase profiling PKCa
Description: as §1

[3] = target: T2, TBK1 (Homo sapiens, UniProt Q9UHD2); assay: Kinase profiling TBK1
T2 sequence (Q9UHD2 1-729): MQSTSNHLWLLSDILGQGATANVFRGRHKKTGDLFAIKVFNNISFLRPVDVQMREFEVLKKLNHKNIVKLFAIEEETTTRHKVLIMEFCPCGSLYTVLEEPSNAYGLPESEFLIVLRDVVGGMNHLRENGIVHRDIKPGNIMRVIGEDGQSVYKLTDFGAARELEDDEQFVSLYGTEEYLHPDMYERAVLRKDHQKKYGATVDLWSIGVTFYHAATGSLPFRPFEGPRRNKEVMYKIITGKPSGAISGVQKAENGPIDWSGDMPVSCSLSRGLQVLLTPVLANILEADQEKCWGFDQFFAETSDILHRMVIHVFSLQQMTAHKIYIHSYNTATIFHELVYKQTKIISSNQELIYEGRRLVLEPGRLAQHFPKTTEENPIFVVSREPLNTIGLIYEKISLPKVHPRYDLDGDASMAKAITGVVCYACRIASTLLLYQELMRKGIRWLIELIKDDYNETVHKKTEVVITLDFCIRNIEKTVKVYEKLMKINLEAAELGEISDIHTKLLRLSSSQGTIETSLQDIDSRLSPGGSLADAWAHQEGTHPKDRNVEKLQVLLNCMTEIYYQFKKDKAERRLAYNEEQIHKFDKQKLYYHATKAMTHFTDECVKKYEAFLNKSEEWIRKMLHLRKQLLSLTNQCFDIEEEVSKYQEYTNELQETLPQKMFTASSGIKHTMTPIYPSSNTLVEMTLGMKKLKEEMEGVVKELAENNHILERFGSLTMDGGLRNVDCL
Description: as §1

[4] = target: PLK1 (Homo sapiens, UniProt P53350); assay: Kinase profiling PLK1
Description: as §1

[5] = target: EPH-A2 (Homo sapiens, UniProt P29317); assay: Kinase profiling EPH-A2
Description: as §1

[6] = target: CAMKKb (Homo sapiens, UniProt Q96RR4); assay: Kinase profiling CAMKKb
Description: as §1

[7] = target: MKK1 (Homo sapiens, UniProt Q02750); assay: Kinase profiling MKK1
Description: as §1

[8] = system: CK2; assay: Kinase profiling CK2
Description: as §1

[9] = target: SRPK1 (Homo sapiens, UniProt Q96SB4); assay: Kinase profiling SRPK1
Description: as §1

[10] = target: BTK (Homo sapiens, UniProt Q06187); assay: Kinase profiling BTK
Description: as §1

[11] = target: PRK2 (Homo sapiens, UniProt Q16513); assay: Kinase profiling PRK2
Description: as §1

[12] = target: PAK4 (Homo sapiens, UniProt O96013); assay: Kinase profiling PAK4
Description: as §1

[13] = target: RIPK2 (Homo sapiens, UniProt O43353); assay: Kinase profiling RIPK2
Description: as §1

[14] = 100 micromolar inhibitor concentration, 100 is no change
[15] = 100 micromolar inhibitor, 100 = no change

Chain of CAMKKb (Q96RR4 whole entry, species assumed): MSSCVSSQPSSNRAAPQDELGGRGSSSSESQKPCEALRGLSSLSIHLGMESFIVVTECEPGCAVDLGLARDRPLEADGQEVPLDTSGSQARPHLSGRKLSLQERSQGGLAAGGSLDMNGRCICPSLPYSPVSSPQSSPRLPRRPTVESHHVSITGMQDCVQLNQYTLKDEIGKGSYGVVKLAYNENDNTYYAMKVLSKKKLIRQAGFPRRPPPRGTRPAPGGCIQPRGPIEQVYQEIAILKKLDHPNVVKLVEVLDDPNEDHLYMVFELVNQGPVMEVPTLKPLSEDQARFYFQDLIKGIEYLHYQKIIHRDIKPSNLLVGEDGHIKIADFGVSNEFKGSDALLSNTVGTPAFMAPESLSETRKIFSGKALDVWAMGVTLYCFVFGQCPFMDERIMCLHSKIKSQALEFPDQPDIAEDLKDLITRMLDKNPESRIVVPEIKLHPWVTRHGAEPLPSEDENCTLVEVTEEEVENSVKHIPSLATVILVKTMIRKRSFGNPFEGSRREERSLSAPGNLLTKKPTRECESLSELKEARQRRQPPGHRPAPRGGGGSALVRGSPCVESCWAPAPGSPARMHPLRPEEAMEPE
Chain of EPH-A2 (P29317 24-976, species assumed): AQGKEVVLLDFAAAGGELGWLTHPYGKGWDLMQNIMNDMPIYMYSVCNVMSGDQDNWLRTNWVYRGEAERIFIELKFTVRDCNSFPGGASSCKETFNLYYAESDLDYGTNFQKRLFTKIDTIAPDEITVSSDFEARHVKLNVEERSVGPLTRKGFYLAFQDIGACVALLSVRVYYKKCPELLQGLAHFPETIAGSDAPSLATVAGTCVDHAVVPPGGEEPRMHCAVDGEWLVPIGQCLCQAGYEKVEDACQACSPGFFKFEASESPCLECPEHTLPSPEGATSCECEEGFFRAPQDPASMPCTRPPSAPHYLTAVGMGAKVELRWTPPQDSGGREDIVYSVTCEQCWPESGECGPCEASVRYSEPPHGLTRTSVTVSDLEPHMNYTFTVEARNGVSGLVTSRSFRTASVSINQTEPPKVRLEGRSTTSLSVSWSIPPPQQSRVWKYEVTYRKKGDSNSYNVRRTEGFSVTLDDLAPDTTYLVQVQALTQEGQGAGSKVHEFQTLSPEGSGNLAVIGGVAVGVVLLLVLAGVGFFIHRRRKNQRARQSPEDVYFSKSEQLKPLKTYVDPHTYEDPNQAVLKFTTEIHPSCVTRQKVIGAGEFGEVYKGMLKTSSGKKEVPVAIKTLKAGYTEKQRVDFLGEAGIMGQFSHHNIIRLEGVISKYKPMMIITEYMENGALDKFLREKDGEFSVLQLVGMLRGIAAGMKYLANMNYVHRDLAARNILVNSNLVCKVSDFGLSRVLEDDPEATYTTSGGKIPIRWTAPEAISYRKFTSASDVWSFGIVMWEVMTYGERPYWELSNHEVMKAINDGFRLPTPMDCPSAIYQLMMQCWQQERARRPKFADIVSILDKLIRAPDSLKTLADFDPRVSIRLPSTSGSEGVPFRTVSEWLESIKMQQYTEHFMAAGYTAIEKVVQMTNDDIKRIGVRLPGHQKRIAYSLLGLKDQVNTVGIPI
Chain of PAK4 (O96013 whole entry, species assumed): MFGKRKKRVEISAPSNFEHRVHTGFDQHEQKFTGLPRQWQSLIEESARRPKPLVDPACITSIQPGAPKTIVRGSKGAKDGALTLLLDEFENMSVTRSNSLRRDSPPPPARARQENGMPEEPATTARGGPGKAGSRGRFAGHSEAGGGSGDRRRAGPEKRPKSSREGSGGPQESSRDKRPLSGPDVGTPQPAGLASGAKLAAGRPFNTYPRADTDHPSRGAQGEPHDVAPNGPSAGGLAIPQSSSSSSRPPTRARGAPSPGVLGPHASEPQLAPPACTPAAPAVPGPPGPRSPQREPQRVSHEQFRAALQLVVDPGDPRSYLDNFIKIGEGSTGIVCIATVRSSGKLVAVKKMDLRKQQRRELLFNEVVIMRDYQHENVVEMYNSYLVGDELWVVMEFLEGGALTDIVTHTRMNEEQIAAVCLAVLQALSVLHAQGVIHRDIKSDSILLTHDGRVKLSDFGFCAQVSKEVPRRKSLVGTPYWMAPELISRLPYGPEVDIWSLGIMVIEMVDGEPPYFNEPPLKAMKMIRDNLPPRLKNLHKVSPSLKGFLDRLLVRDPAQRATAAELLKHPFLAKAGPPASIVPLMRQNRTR
Chain of BTK (Q06187 whole entry, species assumed): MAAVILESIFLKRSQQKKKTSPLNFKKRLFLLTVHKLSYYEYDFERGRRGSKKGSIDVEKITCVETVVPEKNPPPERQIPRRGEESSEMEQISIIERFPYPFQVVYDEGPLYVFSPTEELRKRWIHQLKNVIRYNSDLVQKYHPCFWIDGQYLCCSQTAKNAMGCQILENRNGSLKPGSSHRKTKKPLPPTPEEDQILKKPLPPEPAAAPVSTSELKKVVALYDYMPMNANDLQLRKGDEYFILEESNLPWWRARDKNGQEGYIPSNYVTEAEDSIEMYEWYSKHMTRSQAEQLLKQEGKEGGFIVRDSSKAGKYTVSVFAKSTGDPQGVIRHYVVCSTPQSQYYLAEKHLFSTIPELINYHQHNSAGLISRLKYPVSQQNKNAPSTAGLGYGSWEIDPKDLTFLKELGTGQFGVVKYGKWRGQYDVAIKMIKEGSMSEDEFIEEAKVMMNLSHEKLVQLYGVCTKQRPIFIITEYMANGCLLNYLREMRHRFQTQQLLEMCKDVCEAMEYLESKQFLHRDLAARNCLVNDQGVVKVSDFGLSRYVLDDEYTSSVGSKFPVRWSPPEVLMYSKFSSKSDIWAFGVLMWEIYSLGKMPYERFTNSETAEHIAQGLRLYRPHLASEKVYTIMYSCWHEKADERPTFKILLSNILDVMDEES
Chain of RIPK2 (O43353 whole entry, species assumed): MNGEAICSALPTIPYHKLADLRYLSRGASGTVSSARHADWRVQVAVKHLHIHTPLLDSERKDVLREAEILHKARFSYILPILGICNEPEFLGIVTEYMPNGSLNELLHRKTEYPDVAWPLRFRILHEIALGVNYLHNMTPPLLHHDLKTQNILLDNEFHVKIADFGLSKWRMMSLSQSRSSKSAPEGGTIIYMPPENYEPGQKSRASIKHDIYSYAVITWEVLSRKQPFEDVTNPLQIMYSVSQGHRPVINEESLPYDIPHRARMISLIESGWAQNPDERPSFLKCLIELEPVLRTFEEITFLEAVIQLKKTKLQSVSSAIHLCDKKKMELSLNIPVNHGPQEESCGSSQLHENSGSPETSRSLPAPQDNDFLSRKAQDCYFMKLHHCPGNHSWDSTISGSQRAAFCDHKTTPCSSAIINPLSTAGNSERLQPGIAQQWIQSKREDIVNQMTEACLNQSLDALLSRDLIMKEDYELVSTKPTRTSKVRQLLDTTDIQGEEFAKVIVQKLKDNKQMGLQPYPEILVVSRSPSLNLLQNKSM
Chain of PRK2 (Q16513 whole entry, species assumed): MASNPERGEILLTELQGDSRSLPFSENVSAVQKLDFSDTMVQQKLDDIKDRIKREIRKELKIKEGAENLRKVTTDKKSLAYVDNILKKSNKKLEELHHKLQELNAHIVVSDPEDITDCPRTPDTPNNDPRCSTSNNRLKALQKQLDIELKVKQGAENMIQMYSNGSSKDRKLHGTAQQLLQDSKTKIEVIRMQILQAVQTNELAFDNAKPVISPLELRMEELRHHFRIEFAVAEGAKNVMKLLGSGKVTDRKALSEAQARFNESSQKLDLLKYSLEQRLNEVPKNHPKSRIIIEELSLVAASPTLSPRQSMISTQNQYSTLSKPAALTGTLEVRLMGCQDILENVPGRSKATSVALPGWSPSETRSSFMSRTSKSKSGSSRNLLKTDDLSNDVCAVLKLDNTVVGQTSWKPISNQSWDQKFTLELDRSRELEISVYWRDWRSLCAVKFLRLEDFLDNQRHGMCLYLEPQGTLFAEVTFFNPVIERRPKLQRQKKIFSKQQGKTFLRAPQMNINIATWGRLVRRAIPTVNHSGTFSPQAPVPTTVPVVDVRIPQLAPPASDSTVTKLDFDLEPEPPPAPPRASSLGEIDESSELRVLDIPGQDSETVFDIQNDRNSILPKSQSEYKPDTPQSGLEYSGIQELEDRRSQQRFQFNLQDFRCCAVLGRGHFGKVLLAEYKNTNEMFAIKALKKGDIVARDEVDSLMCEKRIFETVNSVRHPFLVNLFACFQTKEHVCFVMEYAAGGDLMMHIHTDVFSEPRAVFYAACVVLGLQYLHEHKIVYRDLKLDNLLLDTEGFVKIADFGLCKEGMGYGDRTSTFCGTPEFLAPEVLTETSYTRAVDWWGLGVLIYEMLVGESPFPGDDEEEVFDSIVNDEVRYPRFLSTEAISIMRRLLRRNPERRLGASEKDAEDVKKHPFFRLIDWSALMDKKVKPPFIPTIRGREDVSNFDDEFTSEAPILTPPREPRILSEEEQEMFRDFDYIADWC

Row | Structure (SMILES) | residual kinase activity, PKD1 [1, 14] | residual kinase activity, PKCa [2, 14] | residual kinase activity, TBK1 [3, 14] | residual kinase activity, PLK1 [4, 14] | residual kinase activity, EPH-A2 [5, 14] | residual kinase activity, CAMKKb [6, 14] | residual kinase activity, MKK1 [7, 14] | residual kinase activity, CK2 [8, 14] | residual kinase activity, SRPK1 [9, 14] | residual kinase activity, BTK [10, 14] | residual kinase activity, PRK2 [11, 14] | residual kinase activity, PAK4 [12, 14] | residual kinase activity, RIPK2 [13, 14] | also measured
1 | O=C(Nc1nc2ccc(F)cc2s1)c1ccccc1 [Compound 03-92] | 111 | 96 | 92 | 92 | 98 | 80 | 93 | 90 | 19 | 73 | 95 | 111 | 69 | –
2 | CC(=O)Nc1nc2ccc(F)cc2s1 [Compound 03-94] | 105 | 98 | 91 | 93 | 94 | 67 | 76 | 91 | 75 | 107 | 80 | 66 | 38 | –
3 | O=C(Nc1nc2cc(O)ccc2s1)c1ccccc1 [Compound 03-102] | 60 | 72 | 66 | 83 | 65 | 32 | 52 | 75 | 10 | 81 | 68 | 67 | 24 | –
4 | COc1ccc2nc(C(=O)Nc3ccccc3)sc2c1 [Compound 13-03] | – | – | – | – | – | – | – | – | – | – | – | – | – | residual kinase activity, PKD1 [1, 15]: 113; residual kinase activity, PKCa [2, 15]: 119; residual kinase activity, TBK1 [3, 15]: 98; residual kinase activity, PLK1 [4, 15]: 93; residual kinase activity, EPH-A2 [5, 15]: 63; residual kinase activity, CAMKKb [6, 15]: 91; residual kinase activity, MKK1 [7, 15]: 70; residual kinase activity, CK2 [8, 15]: 97; residual kinase activity, SRPK1 [9, 15]: 86; residual kinase activity, BTK [10, 15]: 31; residual kinase activity, PRK2 [11, 15]: 105; residual kinase activity, PAK4 [12, 15]: 58; residual kinase activity, RIPK2 [13, 15]: 76
5 | N#Cc1ccc2nc(NC(=O)c3ccccc3)sc2c1 [Compound 03-106] | 86 | 100 | 94 | 103 | 89 | 67 | 58 | 12 | 7 | 49 | 105 | 94 | 78 | –
6 | COc1cccc(NC(=O)Nc2nc3cc(O)ccc3s2)c1 [Compound 13-62] | – | – | – | – | – | – | – | – | – | – | – | – | – | residual kinase activity, PKD1 [1, 15]: 41; residual kinase activity, PKCa [2, 15]: 102; residual kinase activity, TBK1 [3, 15]: 48; residual kinase activity, PLK1 [4, 15]: 98; residual kinase activity, EPH-A2 [5, 15]: 81; residual kinase activity, CAMKKb [6, 15]: 25; residual kinase activity, MKK1 [7, 15]: 15; residual kinase activity, CK2 [8, 15]: 24; residual kinase activity, SRPK1 [9, 15]: 3; residual kinase activity, BTK [10, 15]: 25; residual kinase activity, PRK2 [11, 15]: 40; residual kinase activity, PAK4 [12, 15]: 22; residual kinase activity, RIPK2 [13, 15]: 6
7 | COC(=O)c1cccc(C(=O)Nc2nc3ccc(F)cc3s2)c1 [Compound 03-110] | 88 | 109 | 96 | 108 | 84 | 62 | 70 | 86 | 55 | 77 | 85 | 83 | 48 | –
8 | COc1ccc2sc(NC(=O)c3cccc(C(N)=O)c3)nc2c1 [Compound 03-113] | 110 | 103 | 98 | 105 | 96 | 70 | 119 | 46 | 82 | 74 | 98 | 109 | 99 | –
9 | O=C(Nc1nc2ccc(C(F)(F)F)cc2s1)c1ccccc1 [Compound 03-99] | 114 | 114 | 96 | 112 | 110 | 86 | 87 | 80 | 61 | 79 | 85 | 154 | 89 | –
10 | COc1ccc2nc(NC(=O)c3ccccc3)sc2c1 [Compound 03-98] | 104 | 89 | 95 | 102 | 95 | 45 | 105 | 88 | 10 | 56 | 91 | 37 | 34 | –
